# Test results taken from a melting point compilation (Tetko et al.; mined from patent text by program, amines drawn as free bases though some values may be those of a salt).
row,melting point,Compound
1,140 to 141 °C,CC1(C)CC(C)(C)CC(CCCC(=O)O)(NC(=O)CCl)C1
2,107 to 108 °C,CCc1cc(C)c2c(-c3cccc(Br)c3)cc(=O)n(CC)c2n1
3,103 to 105 °C,CCCCN(C)C(=O)CSCCCCCCOc1ccc(C2=C(c3ccccc3)CCCc3cc(O)ccc32)cc1
4,65.5 °C,N#CCCOCc1cc(Cl)nc(Cl)c1
5,159 to 161 °C,CCCCN1CCCN(c2ccccc2)c2cc(Cl)ccc21
6,117 to 118 °C,Cc1c(C#N)ncn1-c1cccc(Cl)c1
7,106 to 108 °C,CC(C)(C)Nc1c([N+](=O)[O-])cnc2ccccc12
8,95 to 100 °C,O=C(CCl)Nc1ccc2cc3ccc(NC(=O)CCl)cc3nc2c1
9,51 to 52 °C,COC(=O)C(O)c1ccc(C#N)cc1 (stereo not given)
10,165 to 170 °C,O=C(O)CC(CC(=O)O)c1ccc2oc3c(c2c1)CCCC3
11,57 °C,Cc1cc(C#N)nc(Cl)n1
12,130 to 132 °C,CCNC(=O)CC1CN=C(c2cc3cc(Oc4ccc(COC)nc4)cc(OC)c3[nH]2)S1 (stereo not given)
13,220 to 222 °C,CCOC(=O)c1cc(-c2ccc(C)cc2)n(-c2ccc(S(N)(=O)=O)cc2)n1
14,114 to 115 °C,CCOC(=O)C(=O)c1cn(CCNC(=O)OC(C)(C)C)c2ccccc12
15,127 to 132 °C,c1cc2cc(N3CCOCC3)ccc2s1
16,163 to 165 °C,C#CCON=C(C(C)=NOCc1ccccc1C(=COC)C(=O)OC)c1ccccc1
17,146 °C,OC1CSC(Oc2ccc(-c3ccco3)nc2)C(O)C1O (stereo not given)
18,135 to 136 °C,CCCN(CCC)S(=O)(=O)c1cccc(C(=O)Nc2ccc(Br)cc2C)c1
19,105 to 108 °C,O=C(O)[C@H]1C[C@H](CCc2ccccc2)Oc2ccc(F)cc21 (relative stereo)
20,115 to 122 °C,CC(C)(C)NC(=O)[C@@H]1C[C@H](Cl)CN1C(=O)[C@@H](O)[C@H](Cc1ccccc1)NC(=O)[C@H](CCS(N)(=O)=O)NC(=O)OCc1ccccc1
21,235 to 240 °C,O=C1CCn2cc(C(=O)NCc3ccc(Cl)cc3)c(=O)c3cc(CN4CCOCC4)cc(c32)N1
22,298 to 300 °C,CCOC(=O)c1cc2c(cn1)[nH]c1cccc(Oc3ccc([N+](=O)[O-])cn3)c12
23,262 °C,Cn1c(=O)c(C#N)c(N2CCN(C(=O)c3cccs3)CC2)c2cc(Cl)ccc21
24,196 to 198 °C,CCOP(=O)(Cc1cc(=O)[nH]c2cc(I)ccc12)OCC
25,123 to 126 °C,COc1ccc(S(=O)(=O)/C(=C/C(=O)NO)CCCCc2ccccc2)cc1OC

row,melting point,Compound
1,135 to 136 °C,CSc1cc(C(C)(C)C)n[nH]1
2,165 to 166 °C,COc1cc(Nc2nccc(-c3ccc(NCCN4CCCC4)nc3)n2)cc(OC)c1OC
3,121 to 123 °C,CN1CCCC1CCN1CCN(CCC2CCCN2C)C1=C(C#N)C#N (stereo not given)
4,186 °C,Cc1cc(-n2c(=O)cc(C(F)(F)F)[nH]c2=O)c(F)cc1Br
5,202 to 203 °C,COc1ccnc(N2CCN(C(=O)c3cc4ccccc4[nH]3)CC2)n1
6,72.5 to 73.5 °C,O=S(=O)(CCCl)c1ccc(O)cc1
7,219 to 221 °C,NS(=O)(=O)c1cc2ncccc2o1
8,146 to 148 °C,Cc1ccc(N[C@H](Cc2c[nH]c3ccccc23)C(=O)O)cc1
9,194 to 195 °C,C=Cc1cnc2c(NC(=O)c3c(Cl)cccc3Cl)cccc2c1CC(=O)NCc1ccccn1
10,153 to 160 °C,c1ccc(NCCN2CCN(c3cccc4[nH]ccc34)CC2)nc1
11,165 °C,NC(=O)N1CCN(CC(=O)N2CCOCC2)CC1
12,161 to 168 °C,Oc1ccc(CCNc2ncnc3scnc23)cc1
13,61 to 63 °C,CC(C)(C)OC(=O)N[C@H]1CC[C@H](CC=O)CC1
14,135 to 137 °C,CNC(=O)N1CC(Oc2ccc(Br)cc2)C1
15,222 to 224 °C,CC1=NN(c2ccc(Cl)cc2)C(c2ccc(NC(=O)c3cccc(I)c3C(=O)NC(C)C)c(C)c2)C1 (stereo not given)
16,188 to 190 °C,CC(=O)NCC=C1CCc2ccc3nc(C)oc3c21
17,210 to 215 °C,Cc1cc(NCc2ccc3oc(-c4ccccc4C#N)c(Br)c3c2)n2nccc2n1
18,112 to 113 °C,COc1cc(C)ccc1Oc1ccc(C=O)cc1C#N
19,117 to 119 °C,Cc1nc(C#CCCc2nc3ccccc3o2)cn1C
20,150 to 152 °C,CCOC(=O)c1[nH]c2ccccc2c1Br
21,203 to 204 °C,Cn1c2ccc(OCc3ccccc3)cc2c2c(CC(=O)N3CCCC3)nn(-c3ccccc3)c(=O)c21
22,224 to 226 °C,CC(Br)C(=O)NS(=O)(=O)c1cccc2c1OC(C)(C)C2 (stereo not given)
23,45 to 46 °C,CC(O)c1cccc2c1OCO2 (stereo not given)
24,200 to 202 °C,CCCc1ccc(CCCC(P(=O)(O)O)P(=O)(O)O)cc1
25,189 to 191 °C,COC(=O)Nc1nc2ccc(SC[Si](C)(C)C)cc2[nH]1

row,melting point,Compound
1,158 to 160 °C,CNC(=O)[C@H](C)C[C@H](O)[C@H](CC1CCCCC1)NC(=O)[C@H](Cc1cscn1)NC(=O)OC(C)(C)C
2,128 to 130 °C,Cc1cc(S(=O)(=O)NC(C)C)c2c(C)ccc(C(C)C)cc1-2
3,152 to 153 °C,FC(F)(F)c1cccc(CCc2nnc(-c3ccc4nccn4c3)o2)c1
4,254 °C,CC(C)(C)c1cc(-c2n[nH]c(=S)o2)cc(C(C)(C)C)c1O
5,115 to 120 °C,CCOC(=O)Cc1ccc2c(c1)sc1cc(N(C)C)ccc12
6,196 to 198 °C,CCOC(=O)c1cc(-n2c(=O)[nH]c3c(c2=O)CCCC3)ccc1Cl
7,312 to 315 °C,O=c1[nH]c(Nc2ccccc2)nc2c1ncn2CC(O)CO (stereo not given)
8,124 to 125 °C,O=C(NCCO)c1cccc(-c2ccc3ccn(Cc4ccc(Cl)cc4Cl)c3c2)c1
9,220 to 222 °C,CON(C)Cc1nc2c(N)nc3ccccc3c2n1CC(C)(C)O
10,93 to 94 °C,CCc1c(CO)oc2ccc(Br)cc12
11,40 °C,COCCc1nc2c(N)nc3ccccc3c2n1CCCNC(=O)Nc1ccccc1
12,195 to 196 °C,C[C@@H]1OC(=O)[C@H]2C[C@H]3CCCC[C@@H]3[C@@H](O)[C@@H]12
13,> 300 °C,O=C1NC(=O)C(c2c[nH]c3ccccc23)=C1C(=O)c1cn2c3c(cccc13)CCC2
14,129 to 130 °C,COc1ccc(-c2cc(C#N)c[nH]2)c(OC)c1
15,127 to 130 °C,CON1CCC2(CC1)NC(=O)C(F)(c1cc(C)ccc1C)C2=O (stereo not given)
16,135 to 137 °C,CNc1n[nH]c(=O)n1NC
17,170 to 171 °C,O=C(NCCN1CCN(c2ncccn2)CC1)NC12CC3CC(CC(C3)C1)C2
18,136 to 137 °C,CN1C(=O)Cc2ccsc2S1(=O)=O
19,> 260 °C,NCc1ccc(N2CCN(c3ccc(CCC(=O)O)cc3)C2=O)cc1
20,192 to 193 °C,Cc1ccc(-c2ccc(C(=O)Nc3ccc4nc(CN5CCCC5)ccc4c3)cc2)cc1
21,164 to 166 °C,O=C(c1ccccc1)N1CCNc2ncc(I)cc21
22,160 to 161 °C,COC(=O)Cc1cc(OC)ccc1OCc1ccc(OCc2nc(-c3ccccc3)oc2C)cc1
23,81 to 89 °C,COc1cc(C2CCN(C(=O)C(C)(C)N)CC2)ccc1Nc1ncc2ccc(-c3ccccc3OC)n2n1

row,Compound,melting point
1,CN1C(=O)CN(N)C(c2ccccc2)c2cc(Cl)ccc21 (stereo not given),147 to 148 °C
2,O=C1OCC(c2ccccc2)C1CS (stereo not given),41 to 42 °C
